SMILES strings stand for the structures.

Chain of human NAMPT enzyme (His-hNAMPT) (P43490 whole entry): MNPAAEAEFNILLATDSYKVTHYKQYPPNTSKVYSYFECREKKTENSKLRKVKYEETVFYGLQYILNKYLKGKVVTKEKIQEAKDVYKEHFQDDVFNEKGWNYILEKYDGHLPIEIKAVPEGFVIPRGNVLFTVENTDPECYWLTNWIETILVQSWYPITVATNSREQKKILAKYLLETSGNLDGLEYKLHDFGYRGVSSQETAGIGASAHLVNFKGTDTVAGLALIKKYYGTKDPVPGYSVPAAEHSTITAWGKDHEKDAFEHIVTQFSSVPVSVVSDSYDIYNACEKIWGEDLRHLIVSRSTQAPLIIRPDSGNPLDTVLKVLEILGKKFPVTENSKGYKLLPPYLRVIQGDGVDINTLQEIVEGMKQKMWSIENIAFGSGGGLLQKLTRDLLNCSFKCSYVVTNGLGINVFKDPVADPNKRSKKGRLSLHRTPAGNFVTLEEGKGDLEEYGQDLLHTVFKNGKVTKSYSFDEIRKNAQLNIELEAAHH

The assay has as its target human NAMPT enzyme (His-hNAMPT) (Homo sapiens (Human), UniProt P43490). Kind of assay: NAMPT enzymatic inhibition assay (fluorescence, NADH product). Type of assay: biochemical. The note with it: [HDB]; read-out: NAMPT IC50 (μM) [HDB].
By IC50 is commonly meant the midpoint of a concentration-inhibition curve. On to `O=C(/C=C/c1cccnc1)NCC[C@@H]1[C@H]2CN(Cc3ccc(Cl)cc3)C[C@@H]12` [Example 302, (E)-N-(2-((1R,5S,6s)-3-(4-chlorobenzyl)-3-azabicyclo[3.1.0]hexan-6-yl)ethyl)-3-(pyridin-3-yl)acrylamide], for which the IC50 is 0.01 to 0.49 µM.
On to `CC(C)Oc1ncc(F)c(N2C[C@@H]3[C@@H](CCNC(=O)/C=C/c4cccnc4)[C@@H]3C2)n1` [Example 303, (E)-N-(2-((1R,5S,6s)-3-(5-fluoro-2-isopropoxypyrimidin-4-yl)-3-azabicyclo[3.1.0]hexan-6-yl)ethyl)-3-(pyridin-3-yl)acrylamide], for which the IC50 fell in the range of 0.01 to 0.49 µM.
Turning to `CN(C)c1ncc(F)c(N2C[C@@H]3[C@@H](CCNC(=O)/C=C/c4cccnc4)[C@@H]3C2)n1` [Example 304, (E)-N-(2-((1R,5S,6s)-3-(2-(dimethylamino)-5-fluoropyrimidin-4-yl)-3-azabicyclo[3.1.0]hexan-6-yl)ethyl)-3-(pyridin-3-yl)acrylamide], the IC50 is under 0.01 µM.
Take `O=C(/C=C/c1cccnc1)NCC[C@@H]1[C@H]2CN(c3nc(OC4CCOCC4)ncc3F)C[C@@H]12` [Example 305, (E)-N-(2-((1R,5S,6s)-3-(5-fluoro-2-((tetrahydro-2H-pyran-4-yl)oxy)pyrimidin-4-yl)-3-azabicyclo[3.1.0]hexan-6-yl)ethyl)-3-(pyridin-3-yl)acrylamide]: the IC50 is under 0.01 µM.
As to `O=C(/C=C/c1cccnc1)NCC[C@@H]1[C@H]2CN(c3nc(Oc4ccccc4)ncc3F)C[C@@H]12` [Example 306, (E)-N-(2-((1R,5S,6s)-3-(5-fluoro-2-phenoxypyrimidin-4-yl)-3-azabicyclo[3.1.0]hexan-6-yl)ethyl)-3-(pyridin-3-yl)acrylamide], the IC50 was in the range of 0.01 to 0.49 µM.
For the compound `Cc1cc(N2C[C@@H]3[C@@H](CCNC(=O)/C=C/c4cccnc4)[C@@H]3C2)cc(C)n1` [Example 307, (E)-N-(2-((1R,5S,6s)-3-(2,6-dimethylpyridin-4-yl)-3-azabicyclo[3.1.0]hexan-6-yl)ethyl)-3-(pyridin-3-yl)acrylamide], the IC50 was 0.01 to 0.49 µM.
The value for `O=C(/C=C/c1cccnc1)NCC[C@@H]1[C@H]2CN(c3nc(OCc4ccccc4)ncc3F)C[C@@H]12` [Example 308, (E)-N-(2-((1R,5S,6s)-3-(2-(benzyloxy)-5-fluoropyrimidin-4-yl)-3-azabicyclo[3.1.0]hexan-6-yl)ethyl)-3-(pyridin-3-yl)acrylamide] was under 0.01 µM; that for `COC(=O)C(c1ccccc1)N1C[C@@H]2[C@@H](CCNC(=O)/C=C/c3cccnc3)[C@@H]2C1` (stereo partly drawn) [Example 309, methyl 2-phenyl-2-((1R,5S,6s)-6-(2-((E)-3-(pyridin-3-yl)acrylamido)ethyl)-3-azabicyclo[3.1.0]hexan-3-yl)acetate] was under 0.01 µM; that for `O=C(/C=C/c1cccnc1)NCC[C@@H]1[C@H]2CN(c3ccnc(OC4CCOCC4)c3)C[C@@H]12` [Example 310, (E)-3-(Pyridin-3-yl)-N-(2-((1R,5S,6s)-3-(2-((tetrahydro-2H-pyran-4-yl)oxy)pyridin-4-yl)-3-azabicyclo[3.1.0]hexan-6-yl)ethyl)acrylamide] was 0.01 to 0.49 µM.
The value for `CN(C)CCOc1ncc(F)c(N2C[C@@H]3[C@@H](CCNC(=O)/C=C/c4cccnc4)[C@@H]3C2)n1` [Example 311, (E)-N-(2-((1R,5S,6s)-3-(2-(2-(dimethylamino)ethoxy)-5-fluoropyrimidin-4-yl)-3-azabicyclo[3.1.0]hexan-6-yl)ethyl)-3-(pyridin-3-yl)acrylamide] was under 0.01 µM; that for `Nc1ncc(F)c(N2C[C@@H]3[C@@H](CCNC(=O)/C=C/c4cccnc4)[C@@H]3C2)n1` [Example 312, (E)-N-(2-((1R,5S,6s)-3-(2-amino-5-fluoropyrimidin-4-yl)-3-azabicyclo[3.1.0]hexan-6-yl)ethyl)-3-(pyridin-3-yl)acrylamide] was under 0.01 µM; that for `COc1ncc(F)c(N2C[C@@H]3[C@@H](CCNC(=O)/C=C/c4ccc(F)nc4)[C@@H]3C2)n1` [Example 313, (E)-N-(2-((1R,5S,6s)-3-(5-fluoro-2-methoxypyrimidin-4-yl)-3-azabicyclo[3.1.0]hexan-6-yl)ethyl)-3-(6-fluoropyridin-3-yl)acrylamide] was under 0.01 µM.
In the case of `O=C(/C=C/c1cccnc1)NCC[C@@H]1[C@H]2CN(c3nc(OCCO)ncc3F)C[C@@H]12` [Example 314, (E)-N-(2-((1R,5S,6s)-3-(5-fluoro-2-(2-hydroxyethoxy)pyrimidin-4-yl)-3-azabicyclo[3.1.0]hexan-6-yl)ethyl)-3-(pyridin-3-yl)acrylamide], the IC50 lay within 0.01 to 0.49 µM.
In the case of `CC(c1ncccn1)N1C[C@@H]2[C@@H](CCNC(=O)/C=C/c3cccnc3)[C@@H]2C1` (stereo partly drawn) [Example 315, (E)-3-(pyridin-3-yl)-N-(2-((1R,5S,6s)-3-(1-(pyrimidin-2-yl)ethyl)-3-azabicyclo[3.1.0]hexan-6-yl)ethyl)acrylamide], the IC50 lay in the range of 0.01 to 0.49 µM.
Regarding `O=C(/C=C/c1cccnc1)NCC[C@@H]1[C@H]2CN(Cc3cnc(Cl)nc3)C[C@@H]12` [Example 316], the IC50 lay in the range of 0.01 to 0.49 µM.
As for `CNC(=O)C(c1ccccc1)N1C[C@@H]2[C@@H](CCNC(=O)/C=C/c3cccnc3)[C@@H]2C1` (stereo partly drawn) [Example 317, (E)-N-(2-((1R,5S,6s)-3-(2-(methylamino)-2-oxo-1-phenylethyl)-3-azabicyclo[3.1.0]hexan-6-yl)ethyl)-3-(pyridin-3-yl)acrylamide], the IC50 was under 0.01 µM.
Consider `CCN(CC)C(=O)C(c1ccccc1)N1C[C@@H]2[C@@H](CCNC(=O)/C=C/c3cccnc3)[C@@H]2C1` (stereo partly drawn) [Example 318, (E)-N-(2-((1R,5S,6s)-3-(2-(diethylamino)-2-oxo-1-phenylethyl)-3-azabicyclo[3.1.0]hexan-6-yl)ethyl)-3-(pyridin-3-yl)acrylamide], for which the half-inhibitory concentration (IC50) is under 0.01 µM.
Take `CC(c1ccncc1)N1C[C@@H]2[C@@H](CCNC(=O)/C=C/c3cccnc3)[C@@H]2C1` (stereo partly drawn) [Example 319, (E)-3-(pyridin-3-yl)-N-(2-((1R,5S,6s)-3-(1-(pyridin-4-yl)ethyl)-3-azabicyclo[3.1.0]hexan-6-yl)ethyl)acrylamide]: the IC50 was under 0.01 µM.
The result for `CC(c1cccnc1)N1C[C@@H]2[C@@H](CCNC(=O)/C=C/c3cccnc3)[C@@H]2C1` (stereo partly drawn) [Example 320, (E)-3-(pyridin-3-yl)-N-(2-((1R,5S,6s)-3-(1-(pyridin-3-yl)ethyl)-3-azabicyclo[3.1.0]hexan-6-yl)ethyl)acrylamide] reads under 0.01 µM.
`CC(c1ccccn1)N1C[C@@H]2[C@@H](CCNC(=O)/C=C/c3cccnc3)[C@@H]2C1` (stereo partly drawn) [Example 321, (E)-N-(2-((1R,5S,6s)-3-(1-(pyridin-2-yl)ethyl)-3-azabicyclo[3.1.0]hexan-6-yl)ethyl)-3-(pyridin-3-yl)acrylamide]: the IC50 lay in the range of 0.01 to 0.49 µM.
The result for `CC(c1ccc(F)cc1)N1C[C@@H]2[C@@H](CCNC(=O)/C=C/c3cccnc3)[C@@H]2C1` (stereo partly drawn) [Example 322, (E)-N-(2-((1R,5S,6s)-3-(1-(4-fluorophenyl)ethyl)-3-azabicyclo[3.1.0]hexan-6-yl)ethyl)-3-(pyridin-3-yl)acrylamide] reads 0.01 to 0.49 µM; that for `CC(c1cccc(F)c1)N1C[C@@H]2[C@@H](CCNC(=O)/C=C/c3cccnc3)[C@@H]2C1` (stereo partly drawn) [Example 323, (E)-N-(2-((1R,5S,6s)-3-(1-(3-fluorophenyl)ethyl)-3-azabicyclo[3.1.0]hexan-6-yl)ethyl)-3-(pyridin-3-yl)acrylamide], under 0.01 µM.
Turning to `O=C(/C=C/c1cccnc1)NCC[C@@H]1[C@H]2CN(c3nc(N4CCNCC4)ncc3F)C[C@@H]12` [Example 324, (E)-N-(2-((1R,5S,6s)-3-(5-fluoro-2-(piperazin-1-yl)pyrimidin-4-yl)-3-azabicyclo[3.1.0]hexan-6-yl)ethyl)-3-(pyridin-3-yl)acrylamide], the IC50 lay within 0.01 to 0.49 µM.
With `CN1CCN(c2ncc(F)c(N3C[C@@H]4[C@@H](CCNC(=O)/C=C/c5cccnc5)[C@@H]4C3)n2)CC1` [Example 325, (E)-N-(2-((1R,5S,6s)-3-(5-fluoro-2-(4-methylpiperazin-1-yl)pyrimidin-4-yl)-3-azabicyclo[3.1.0]hexan-6-yl)ethyl)-3-(pyridin-3-yl)acrylamide], the IC50 was under 0.01 µM.
Consider `O=C(/C=C/c1cccnc1)NCC[C@@H]1[C@H]2CN(c3nc(N4CCC(O)C4)ncc3F)C[C@@H]12` (stereo partly drawn) [Example 326, (E)-N-(2-((1R,5S,6s)-3-(5-fluoro-2-(3-hydroxypyrrolidin-1-yl)pyrimidin-4-yl)-3-azabicyclo[3.1.0]hexan-6-yl)ethyl)-3-(pyridin-3-yl)acrylamide], for which the IC50 is under 0.01 µM.
The value for `CNc1ncc(F)c(N2C[C@@H]3[C@@H](CCNC(=O)/C=C/c4cccnc4)[C@@H]3C2)n1` [Example 327, (E)-N-(2-((1R,5S,6s)-3-(5-fluoro-2-(methylamino)pyrimidin-4-yl)-3-azabicyclo[3.1.0]hexan-6-yl)ethyl)-3-(pyridin-3-yl)acrylamide] was under 0.01 µM; that for `CNC(=O)COc1ncc(F)c(N2C[C@@H]3[C@@H](CCNC(=O)/C=C/c4cccnc4)[C@@H]3C2)n1` [Example 328, (E)-N-(2-((1R,5S,6s)-3-(5-fluoro-2-(2-(methylamino)-2-oxoethoxy)pyrimidin-4-yl)-3-azabicyclo[3.1.0]hexan-6-yl)ethyl)-3-(pyridin-3-yl)acrylamide] was 0.01 to 0.49 µM; that for `CCN(CC)C(=O)COc1ncc(F)c(N2C[C@@H]3[C@@H](CCNC(=O)/C=C/c4cccnc4)[C@@H]3C2)n1` [Example 329, (E)-N-(2-((1R,5S,6s)-3-(2-(2-(diethylamino)-2-oxoethoxy)-5-fluoropyrimidin-4-yl)-3-azabicyclo[3.1.0]hexan-6-yl)ethyl)-3-(pyridin-3-yl)acrylamide] was 0.01 to 0.49 µM.
On to `COc1ncc(F)c(N2C[C@@H]3[C@@H](CCNC(=O)/C=C/c4cncc(F)c4)[C@@H]3C2)n1` [Example 330, (E)-N-(2-((1R,5S,6s)-3-(5-fluoro-2-methoxypyrimidin-4-yl)-3-azabicyclo[3.1.0]hexan-6-yl)ethyl)-3-(5-fluoropyridin-3-yl)acrylamide], for which the IC50 was 0.01 to 0.49 µM.

Source of the values: patent publication US12421210B2, “Fused bicyclic heterocycles as therapeutic agents” (NEW YORK UNIVERSITY, priority 2018, dated 2025).
